{"source": "patent US20140113958A1", "about": "“HCV Combination Therapy” (priority 2011, published 2014)", "key": {"HCV": {"test_system": "HCV", "experiment": "HCV RNA suppression in vivo"}, "[1]": {"test_system": "drug-resistant HCV genotype 1b replicons (NS3, NS5A, NS5B)", "experimental": "(§1) The in vitro antiviral of miravirsen was evaluated against wild-type HCV genotype 1b replicon and HCV genotype 1b replicons constructed to contain key amino acid substitutions in NS3 protease (A156T, R155K), NS5B polymerase (S282T, M423I) and NS5A protein (Y93H) in transient transfection assays utilizing Huh 7 cells. […] Huh 7 cells were transfected with either the wild-type or the mutant RNA constructs by electroporation. Luciferase activity was measured 72 hours after compound treatment and EC50 values determined from dose-response curves. Fold resistance was expressed as the ratio of the EC50 for mutant HCV replicon to the EC50 for wild-type HCV replicon.\nThe in vitro antiviral of miravirsen was evaluated against wild-type HCV genotype 1b replicon and HCV replicons constructed to contain key amino acid substitutions in NS3 protease (A156T, R155K), NS5B polymerase (S282T, M423I) and NS5A protein (Y93H) in transient transfection assays. […] Huh 7 cells were transfected with either the wild type or the mutant RNA constructs by electroporation. Luciferase activity was measured 72 hours after compound treatment and EC50 values determined from dose-response curves. Fold resistance was expressed as the ratio of the EC50 for mutant HCV replicon to the EC50 for wild-type HCV replicon. Results are expressed as the mean of two individual experiments. […]"}, "[2]": {"test_system": "HCV genotype 1b replicon NS5B S282T", "type": "cell-based", "conditions": "EC50 mutant / EC50 wild-type; mean of two experiments (individual values)", "experimental": "as §1\n(§2) The in vitro antiviral of miravirsen was evaluated against wild-type HCV genotype 1b replicon and HCV replicons constructed to contain key amino acid substitutions in NS3 protease (A156T, R155K), NS5B polymerase (S282T, M423I) and NS5A protein (Y93H) in transient transfection assays. […] Huh 7 cells were transfected with either the wild type or the mutant RNA constructs by electroporation. Luciferase activity was measured 72 hours after compound treatment and EC50 values determined from dose-response curves. Fold resistance was expressed as the ratio of the EC50 for mutant HCV replicon to the EC50 for wild-type HCV replicon. Results are expressed as the mean of two individual experiments. In an initial set of experiments, the standard protocol was modified by adding compounds 24 hours after electroporation. […] In a third experiment cells were pretreated with miravirsen for 24 hours before electroporation with wild-type RNA constructs to determine if preincubation could result in increased miravirsen antiviral activity."}, "[3]": {"test_system": "HCV genotype 1b replicon NS5B M423I", "type": "cell-based", "conditions": "EC50 mutant / EC50 wild-type; mean of two experiments (individual values)", "experimental": "as §1, §2"}, "[4]": {"test_system": "HCV genotype 1b replicon NS3 R155K", "type": "cell-based", "conditions": "EC50 mutant / EC50 wild-type, mean of two experiments (individual values)", "experimental": "as §1, §2"}, "[5]": {"test_system": "HCV genotype 1b replicon NS5A Y93H", "type": "cell-based", "conditions": "EC50 mutant / EC50 wild-type; mean of two experiments (individual values)", "experimental": "as §1, §2"}, "[6]": {"test_system": "HCV genotype 1b replicon NS3 A156T", "type": "cell-based", "conditions": "EC50 mutant / EC50 wild-type, mean of two experiments (individual values)", "experimental": "as §1, §2"}, "cytochrome 450": {"test_system": "cytochrome 450", "experiment": "Metabolism by cytochrome 450 mechanisms", "type": "in vitro ADME"}, "[7]": {"conditions": "compared with interferon alpha-2b"}, "all HCV genotypes": {"test_system": "all HCV genotypes", "experiment": "Activity against HCV genotypes in vitro", "type": "cell-based"}, "[8]": {"test_system": "wild-type HCV genotype 1b replicon", "experiment": "Transient transfection replicon assay in Huh 7 cells (luciferase, 72 hours), wild-type", "type": "cell-based"}, "HCV genotype 1": {"test_system": "HCV genotype 1", "experiment": "Phase 2a clinical trial, miravirsen monotherapy", "type": "in vivo, human", "conditions": "for mean of the maximum HCV RNA decline from baseline: 5 weekly doses subcutaneously over 29 days, chronic HCV genotype 1 patients", "experimental": "Thirty-six treatment-naïve chronic HCV genotype 1 infected patients were enrolled into 3 sequential dosing cohorts and received 5 weekly doses of miravirsen 3, 5, or 7 mg/kg (n=27) or placebo (n=9) subcutaneously over 29 days and were followed up until week 18."}, "[9]": {"conditions": "chronic HCV genotype 1 infected patients"}}, "note": "“Also recorded” adds a separate entry of the source. Read-outs that look alike come from different tables or passages of the source.", "data": [{"compound": "5′-^mCs^ocsAs^otstsGs^oTs^ocsas^mCs^oas^mCs^ots^mCs^omC^o-3′ (CCATTGTCACACTCC; all phosphorothioate, sugars by position and methylation of C not given here; further chemistry not fully specified) [miravirsen]", "values": [{"measurement": "HCV RNA suppression in vivo", "setting": "HCV", "value": "long-lasting HCV RNA suppression without emergence of resistance"}, {"measurement": "fold changes in resistance", "setting": "[1]; all drug-resistant HCV variants tested", "value": "less than 2 fold"}, {"measurement": "antiviral activity against drug-resistant replicons", "setting": "[1]; replicons resistant to NS3, NS5A and NS5B inhibitors", "value": "broad antiviral activity"}, {"measurement": "fold change in susceptibility, NS5B S282T", "setting": "[2]", "value": "1.9 (2.6, 1.1) fold"}, {"measurement": "fold change in susceptibility, NS5B M423I", "setting": "[3]", "value": "1.7 (2.3, 1.0) fold"}, {"measurement": "fold change in susceptibility, NS3 R155K", "setting": "[4]", "value": "1.2 (1.9, 0.4) fold"}, {"measurement": "fold change in susceptibility, NS5A Y93H", "setting": "[5]", "value": "0.9 (0.8, 0.9) fold"}, {"measurement": "fold change in susceptibility, NS3 A156T", "setting": "[6]", "value": "1.0 (1.4, 0.5) fold"}, {"measurement": "metabolism by cytochrome 450 mechanisms", "setting": "cytochrome 450", "value": "not metabolized by cytochrome 450 mechanisms"}, {"measurement": "therapeutic index", "setting": "[7]", "value": "at least an order of magnitude greater than interferon alpha-2b"}, {"measurement": "activity against HCV genotypes in vitro", "setting": "all HCV genotypes", "value": "activity against all HCV genotypes in vitro; also recorded: effective against all HCV genotypes in vitro"}, {"measurement": "EC50", "setting": "[8]; Huh 7 cells preincubated with miravirsen 24 hours before electroporation with wild-type RNA, read-out: EC50", "value": 25.6, "unit": "µM"}, {"measurement": "EC50", "setting": "[8]; wild-type HCV, transient transfection assays, read-out: average EC50", "value": 36.7, "unit": "µM"}, {"measurement": "mean of the maximum HCV RNA decline from baseline", "setting": "HCV genotype 1; 3 mg/kg", "value": 1.2, "unit": "log10IU/mL"}, {"measurement": "patients who achieved undetectable HCV RNA", "setting": "HCV genotype 1; 5 mg/kg cohort", "value": "One"}, {"measurement": "mean of the maximum HCV RNA decline from baseline", "setting": "HCV genotype 1; 5 mg/kg", "value": 2.9, "unit": "log10IU/mL"}, {"measurement": "patients who achieved undetectable HCV RNA", "setting": "HCV genotype 1; 7 mg/kg cohort", "value": "four"}, {"measurement": "mean of the maximum HCV RNA decline from baseline", "setting": "HCV genotype 1; 7 mg/kg", "value": 3.0, "unit": "log10IU/mL"}, {"measurement": "dose-limiting adverse events", "setting": "HCV genotype 1; 3, 5 or 7 mg/kg", "value": "no dose-limiting adverse events"}, {"measurement": "escape mutations in the HCV genome miR-122 binding sites", "setting": "HCV genotype 1; 3, 5 or 7 mg/kg", "value": "no escape mutations were observed"}, {"measurement": "emergence of viral resistance", "setting": "HCV genotype 1; [9]", "value": "not seen"}, {"measurement": "reduction in HCV RNA", "setting": "HCV genotype 1; [9]", "value": "prolonged dose-dependent reductions in HCV RNA levels"}, {"measurement": "safety and tolerability", "setting": "HCV genotype 1; [9]", "value": "safe, well-tolerated"}, {"measurement": "reduction in HCV RNA", "setting": "HCV genotype 1; chronic HCV genotype 1 infected patients, listed as Miravirsen", "value": "dose-dependent reduction in HCV RNA that was prolonged well beyond the end of active therapy"}, {"measurement": "HCV titre", "setting": "HCV genotype 1; four week clinical trial to assess safety and tolerability", "value": "below detection"}]}, {"compound": "CCC[C@H](NC(=O)[C@@H]1[C@H]2CCC[C@H]2CN1C(=O)[C@@H](NC(=O)[C@@H](NC(=O)c1cnccn1)C1CCCCC1)C(C)(C)C)C(=O)C(=O)NC1CC1", "note": "[Telaprevir, (1S,3aR,6aS)-2-[(2S)-2-[[(2S)-2-Cyclohexyl-2-(pyrazine-2-carbonylamino)acetyl]amino]-3,3-dimethylbutanoyl]-N-[(3S)-1-(cyclopropylamino)-1,2-dioxohexan-3-yl]-3,3a,4,5,6,6a-hexahydro-1H-cyclopenta[c]pyrrole-1-carboxamide]", "values": [{"measurement": "fold change in susceptibility, NS5B S282T", "setting": "[2]", "value": "1.0 (1.0, 1.0) fold"}, {"measurement": "fold change in susceptibility, NS3 R155K", "setting": "[4]", "value": "4.6 (5.0, 4.2) fold"}, {"measurement": "fold change in susceptibility, NS3 R155K", "setting": "[4]; listed as telaprevir", "value": 4.6, "unit": "fold"}, {"measurement": "fold change in susceptibility, NS3 A156T", "setting": "[6]", "value": "36.1 (46.9, 25.2) fold"}, {"measurement": "fold change in susceptibility, NS3 A156T", "setting": "[6]; listed as telaprevir", "value": 36.1, "unit": "fold"}]}]}
